From patent US9782491B2, “Peptide conjugates for treating pain” (priority 2012, dated 2017)
Several values for one entry are separate records, joined by “and”; a condition that tells them apart may be missing. Equal entries are not always repeated. Where two headings read alike, the source gives them in different places. Ends that are not written are not given here.

Columns and labels:
d4T-treated rats = assay: d4T-induced mechanical hypersensitivity, paw withdrawal threshold; settings: administered at 10 mg
adult mouse DRG neurons = assay: K+-stimulated release of iCGRP from isolated sensory neurons (RIA); assay type: cell-based; settings: 10 μM peptide; for basal or resting release of iCGRP: 3.5 mM KCl
Method: EXAMPLE. Primary dorsal root ganglion (DRG) neuronal cultures. Isolation of sensory neurons from 1 to 2 month old wildtype C57BL/6J and Nf1^+/− C57BL/6J littermates (34) was performed exactly as described previously (11,35,36) while DRGs from adult rats were prepared as per Brittain and colleagues (11). All animals were housed, bred, and had free access to food and water in the Indiana University Laboratory Animal Research Center and used in procedures approved by the Animal Use and Care Committee of the Indiana University School of Medicine. All animals were genotyped prior to use in experiments.
EXAMPLE. Stimulated-release of iCGRP. Measurement of stimulus-evoked release and content of immunoreactive CGRP (iCGRP) from isolated sensory neurons was accomplished as previously published (11,33,35). After 5-7 days in culture, media was removed and the basal or resting release of iCGRP was measured from cells incubated for 10 minutes in HEPES buffer consisting of (in mM): 25 HEPES, 135 NaCl, 3.5 KCl, 2.5 CaCl2, 1 MgCl2, 3.3 dextrose, and 0.1% (w/v) bovine serum albumin, pH 7.4, and maintained at 37° C. […] The amount of iCGRP released in each incubation was measured by a radioimmunoas say (RIA). The minimum amount of iCGRP detected by the RIA is 5 fmol with a 95% confidence interval (37). After the release protocol, the remaining peptide content in each well was determined by exposing the cells to 2 N acetic acid for 10 minutes. Aliquots of acid solution were diluted in HEPES and iCGRP levels were determined by RIA. The release of iCGRP during the 10 min incubation period is expressed as percent of the total content. […]
EXAMPLE. […] The KCl-stimulated release of CGRP was measured from sensory neurons exposed to TAT-control, TAT-L1 or TAT-Ct-dis peptides, at 10 μM (a concentration at which Ca^2+ influx was largely unaffected by both peptides), included in the 10 minutes prior to and throughout the high K^+ exposures (total peptide exposure of 30 min). […]

ddC-injected rats = assay: ddC model of peripheral neuropathy, von Frey paw withdrawal threshold; assay type: in vivo, rat
[1] = system: adult Nf1+/- mice DRG neurons; assay: K+-stimulated release of iCGRP from Nf1+/- sensory neurons (RIA); assay type: cell-based, mouse
[2] = system: lumbar 4-5 DRG neurons from d4T-treated rats; assay: Current clamp recording of action potential firing; assay type: cell-based, rat; settings: 10 μM
Method: EXAMPLE. […] Current clamp recordings were performed on small-to-medium (>30 μm->40 μm) diameter lumbar 4-5 DRG neurons from d4T-treated rats. Firing of 4-6 action potentials (APs) was elicited by a 1 second depolarizing current injection (ranging from 0.1 to 0.4 nA depending on the cell) every 30 seconds.

[3] = system: R-type (CaV2.3) Ca2+ currents; assay: R-type Ca2+ current recording in sensory neurons; assay type: cell-based
[4] = cell permeability; Wender et al.; cited from earlier work
[5] = molecular target: interaction between CaV2.2 and CRMP2 (Rattus norvegicus, UniProt P47942); assay: Immunoprecipitation with CaV2.2 antibody from rat dorsal root ganglia lysate, CRMP2 immunoblot; assay type: biochemical; settings: 10 μM peptide added for 30 min; rat DRG
adult rat DRG neurons = assay: Fura-2 calcium imaging of K+-stimulated Ca2+ influx; assay type: cell-based
naïve rodents = settings: in vivo, ip
rats with TNI = settings: 10 mg/kg i.p.; evaluated at 1 h and 4 h
Method: Antinociceptive efficacy following acute and continuous systemic infusion. Test animals with tibial nerve injury (TNI)-induced neuropathic pain behavior (over 6 months) were administered to a single intraperitoneal injection or continual constant-rate infusion of polyarginine-conjugated CBD3A6K (ST2-106). Female Sprague-Dawley rats with TNI were administered a single injection of saline or 20 mg/kg of ST2-106.
Female Sprague-Dawley rats with TNI were infused with saline or ST2-106 over a 24 to 72 hour period using subcutaneously implanted Alzet® osmotic minipumps. […] Rats were used at 28 days after tibial nerve injury.
Paw-withdrawal thresholds (PWT in millinewtons, mN) were measured in naïve rats and rats subjected to spared nerve injury (i.e. tibial nerve ligation, TNI).
Paw-withdrawal thresholds (PWT in millinewtons, mN) were also measured in naïve rats and rats subjected to TNI when treated with compounds described herein or vehicle for extended periods.

## YGRKKRRQRRRARSRLKELRGVPRGL [ST1-105]
d4T-treated rats
  effect on healthy animals (pre-d4T): Neither TAT-CBD3 nor TAT-CBD3A6K administered at 10 mg showed an effect

## YGRKKRRQRRR-NSSFPSIHCSSSWSEE [TAT-Ct-dis]
Adult mouse DRG neurons; 50 mM KCl
  less iCGRP release compared to TAT-control: ~70%
ddC-injected rats; 4 mg/kg i.p., two hours after injection
  peptide-induced reversal of hypersensitivity: diminished to pre-peptide levels
ddC-injected rats; ~4 mg/kg i.p., 1 h after injection, seven days after ddC
  reversal of tactile hypersensitivity (PWT): Almost complete reversal of tactile hypersensitivity
[1]
  less iCGRP release compared to TAT-control: ~70%

## YGRKKRRQRRRARSRLAELRGVPRGL [ST1-104]
d4T-treated rats
  effect on healthy animals (pre-d4T): Neither TAT-CBD3 nor TAT-CBD3A6K administered at 10 mg showed an effect

## YGRKKRRQRRR-YLEWIFKAEEVMLAE (YGRKKRRQRRRYLEWIFKAEEVMLAE) [TAT-L1]
Adult mouse DRG neurons
  basal or resting release of iCGRP: 1.04±0.09 % total peptide content/10 min

## YGRKKRRQRRR-WEAKEMLYFEALVIE (YGRKKRRQRRRWEAKEMLYFEALVIE) [TAT-control, reference compound]
Adult mouse DRG neurons
  basal or resting release of iCGRP: 1.58±0.17 % total peptide content/10 min and 0.92±0.09 % total peptide content/10 min
[1]
  increase in iCGRP release over basal: 8 to 10 fold

## YGRKKRRQRRRARSRLAELLGVPRGL [ST1-106]
[2]
  number of elicited action potentials: reduces the number of elicited action potentials
[3]
  R-type calcium current density: showed a significant decrease over control

## ARSRLAELRGVPRGL (listed as Homo sapiens) [CBD3, short peptide derived from CRMP2]
[1]; Nf1+/- neurons, 50 mM KCl, 10 μM peptide
  less iCGRP release compared to TAT-control: ~78%

## R9: oligoarginine (SEQ ID NO: 1) (RRRRRRRRR)
[4]
  greater penetration than TAT: 100 fold

## NSSFPSIHCSSWSEE [Ct-dis]
[5]
  amount of CRMP2 captured with CaV2.2 antibody: reduced the amount of CRMP2 that could be captured
Adult rat DRG neurons; 30 μM
  peptide-mediated inhibition of [Ca2+]c influx, Ct-dis versus L1: much more pronounced
Adult rat DRG neurons; 20 min incubation, 3 μM and 30 μM (FIG. 1), 46.5 mM KCl
  K+-stimulated [Ca2+]c influx: concentration-dependent decrease

## RRRRRRRRRARSRLKELRGVPRGL [ST2-106]
naïve rodents
  PWT in naïve animals: unaffected

## RRRRRRRRRARSRLAELRGVPRGL [ST2-104]
Rats with TNI
  nerve-injury induced nociception (PWT): reverses nerve-injury induced nociception
